Earlier results in patent US10011570B2, “Nucleic acid binding dyes with improved safety” (Biotium, Inc., priority 2013, dated 2018).

Test system: cellular mutation caused by UV light or other known mutagens
Conditions: cited from earlier work

CCCN(CCCN(C)C)c1cc(/C=C2/Sc3ccccc3N2C)c2ccccc2[n+]1-c1ccccc1 [SYBR Green]
effect on cellular mutation caused by UV light or other known mutagens: can worsen cellular mutation
power in worsening mutation relative to ethidium bromide: ~100 times
